For the assay, the target named is 20S proteasome (rat liver) (Rattus norvegicus, UniProt P18421+P28075). The assay is described as follows: inhibition of suc-LLVY-AMC hydrolysis. Particulars: read-out: % inhibition at 10 uM. It is filed as biochemical.

Where a SMILES comes first, the peptide text is derived from it. The star is where a group is joined. Cbz = O=C(OCc1ccccc1)*

In the case of `CC(C)C[C@@H](C=O)NC(=O)[C@H](CC(C)C)NC(=O)[C@H](CC(C)C)NC(=O)OCc1ccccc1` [MG-132] (Cbz-Leu-Leu-Leu-aldehyde), the inhibition at 10 µM came to 90%.

What is called inhibition is how much of the control response was suppressed.

Values taken from publication PMC2706308 (Biochimica et biophysica acta, 2009).
